Tests used:
[1] = test system: Respiratory syncytial virus recombinant with luciferase (RSV-Luc5); assay: microbe, parasite or virus in culture; assay type: cell-based; details: human respiratory syncytial virus, NHBE, 72 h, read-out: RSV NHBE EC50 (nM)
[2] = test system: SARS Coronavirus 2 recombinant with NanoLuc (SARS-CoV2-NLuc); assay: organism not typed; assay type: cell-based; details: 48 h
[3] = in vitro; assay type: cell-based; details: human
Method: Cytotoxicity of the compounds was determined in uninfected cells using the cell viability reagent in a similar fashion as described before for other cell types (Cihlar et al., Antimicrob Agents Chemother. 2008, 52(2):655-65). HEp-2 (1.5×10^3 cells/well) and MT-4 (2×10^3 cells/well) cells were plated in 384-well plates and incubated with the appropriate medium containing 3-fold serially diluted compound ranging from 15 nM to 100,000 nM. Cells were cultured for 4-5 days at 37° C. Following the incubation, the cells were allowed to equilibrate to 25° C., and cell viability was determined by adding Cell-Titer Glo viability reagent. The mixture was incubated for 10 min, and the luminescence signal was quantified using an Envision plate reader. Untreated cell and cells treated at 2 μM puromycin (Sigma, St. Louis, MO) serve as […] cell viability control, respectively. The percent of cell viability was calculated for each tested compound concentration relative to the 0% and 100% controls and the CC50 value was determined by non-linear regression as a compound concentration reducing the cell viability by […].

[4] = in vitro; assay type: in vitro ADME; details: human, s9, pH 7.4
Method: Duplicate aliquots of test compound or positive control substrate (GS-7340) were added to PMSF-free Intestinal S9 fractions diluted with 100 mM phosphate buffered saline, pH 7.4, to obtain a protein concentration of 1.0 mg/mL. The S9 metabolic reactions were initiated by the addition of the substrates to the S9 reaction mixture to a final concentration of 2 μM. At 0, 10, 20, 30, 60 and 120 min, 25 μL aliquots of the reaction mixture were transferred to plates containing 225 μl of IS/Q solution. After quenching, the plates were centrifuged at 3000×g for 30 minutes, and 150 μL aliquots of each supernatant were diluted with 150 μL water. Aliquots (10 μL) of the diluted supernatant were analyzed on a Thermo Q-Exactive mass spectrometer as described below. Quantification of test compounds and controls was performed by analyte/internal standard peak area ratio (PAR) values measured on a Thermo Q-Exactive mass spectrometer coupled to a Dionex UltiMate 3000 HPLC with a Leap Technologies HTC PAL autosampler. The column used was a Thermo Hypersil GOLD (1.9 μm particle size, 2.1×50 mm). Mobile phase A consisted of […] formic acid in water. Mobile phase B consisted of 0.1% (v/v) formic acid in acetonitrile. Elution of analytes was achieved by a series of linear gradients of acetonitrile in water containing 0.1% (v/v) formic acid. The mass spectrometer was calibrated on a weekly basis and mass tolerance of 5 ppm was used.

[5] = in vitro; assay type: in vitro ADME; details: human, s9, pH 7.4; remark: listed apart in the source
Method: Duplicate aliquots of test compound or positive control substrate (GS-7340) were added to S9 stock diluted with 100 mM potassium phosphate buffer, pH 7.4, to obtain a protein concentration of 2.4 mg/mL. The S9 metabolic reactions were initiated by the addition of the substrates to the S9 reaction mixture to a final concentration of 2 μM. At 2, 12, 25, 45, 65 and 90 min, 25 μL aliquots of the reaction mixture were transferred to plates containing 225 μl of IS/Q solution. After quenching, the plates were centrifuged at 3000×g for 30 minutes, and 150 μL aliquots of each supernatant were diluted with 150 μL water. Aliquots (10 μL) of the diluted supernatant were analyzed on a Thermo Q-Exactive mass spectrometer as described below. Quantification of test compounds and controls was performed by analyte/internal standard peak area ratio (PAR) values measured on a Thermo Q-Exactive mass spectrometer coupled to a Dionex UltiMate 3000 HPLC with a Leap Technologies HTC PAL autosampler. The column used was a Thermo Hypersil GOLD (1.9 μm particle size, 2.1×50 mm). Mobile phase A consisted of […] formic acid in water. Mobile phase B consisted of 0.1% (v/v) formic acid in acetonitrile. Elution of analytes was achieved by a series of linear gradients of acetonitrile in water containing 0.1% (v/v) formic acid. The mass spectrometer was calibrated on a weekly basis and mass tolerance of 5 ppm was used.

[6] = assay type: in vitro ADME; details: 2 μM
Method: Duplicate aliquots of plasma were warmed to 37° C. and the metabolic reactions initiated by the addition of test compound (6 μL of 0.1 mM DMSO stock) or plasma stability standard (GS-7340) to obtain a final substrate concentration of 2 μM. At 0.05, 0.5, 1, 2, 3 and 4 hr, 25 μL aliquots of the reaction mixture were transferred to plates containing 225 μl of IS/Q quenching solution. After quenching, the plates were centrifuged at 3000×g for 30 minutes, and 150 μL supernatant was diluted with 150 μL water. Aliquots (10 μL) of the diluted supernatant were analyzed on a Thermo Q-Exactive mass spectrometer as described below. Quantification of test compounds and controls was performed by analyte/internal standard peak area ratio (PAR) values measured on a Thermo Q-Exactive mass spectrometer coupled to a Dionex UltiMate 3000 HPLC with a Leap Technologies HTC PAL autosampler. The column used was a Thermo Hypersil GOLD (1.9 μm particle size, 2.1×50 mm). Mobile phase A consisted of […] formic acid in water. Mobile phase B consisted of 0.1% (v/v) formic acid in acetonitrile. Elution of analytes was achieved by a series of linear gradients of acetonitrile in water containing 0.1% (v/v) formic acid. The mass spectrometer was calibrated on a weekly basis and mass tolerance of 5 ppm was used.

[7] = test system: Caco-2 cells (clone C2BBel); assay: CACO-2 permeability; assay type: in vitro ADME; details: donor pH 6.5, receiver pH 7.4; for DM Caco2 A to B: forward (A to B); for DM Caco2 B to A: reverse (B to A)
Method: Pre-plated Caco-2 cells (clone C2BBel) were obtained from Sigma-Aldrich, Inc. (Atlanta, GA). Cell monolayers were grown to confluence on collagen-coated, microporous, polycarbonate membranes in 24-well transwell plates for 21 days. The permeability assay buffer in donor wells was Hanks' balanced salt solution (HBSS) containing 10 mM HEPES and 15 mM glucose at a pH of 6.5 containing 200 μM BNPP. The receiver wells used HBSS buffer containing 10 mM HEPES and 15 mM glucose at a pH of 7.4 and supplemented with 1% BSA. After an initial equilibration with transport buffer, TEER values were read to test membrane integrity. The experiment was started by the addition of buffers containing test compounds, 200 μl and 1000 μl in the apical and basolateral chamber, respectively. At 0- and 2-hour post dose, 10 μL was sampled from donor compartment and was immediately diluted in 190 μL of 20% methanol. At 1 and 2 hours post dose, 100 μl of solution was taken from the receiver compartments and was immediately diluted in 100 μl of 20% methanol. Removed buffer was replaced with fresh buffer and a correction was applied to all calculations for the removed material. Each compound was tested in 2 separate replicate wells for each condition. All samples were then extracted with 400 μl 100% acetonitrile with internal standard to precipitate protein. Cells were dosed on the apical or basolateral side to determine forward (A to B) and reverse (B to A) permeability. To test for non-specific binding and compound instability, the total amount of drug was quantitated at the end of the experiment and compared to the material present in the original dosing solution as a percent recovery. Formation of the parent compound (GS-441524; Reference Compound A) was monitored in assay wells dosed with the prodrug. Samples were analyzed by LC-MS/MS.
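Throughout, for CC50: uninfected MT-4 cells over 4-5 days by CellTiter-Glo.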

Compound	EC50 [1] [nM]	EC50 [2] [µM]	CC50 [3] [µM]	half-life at 2 μM [4] [min]	half-life at 2 μM [5] [min]	STA Human Plasma 37 [6]	DM Caco2 A to B [7]	DM Caco2 B to A [7]
COC(=O)[C@H]1COC(=O)N1C(=O)OC[C@H]1O[C@@](C#N)(c2ccc3c(N)ncnn23)[C@H](O)[C@@H]1O [Compound 5, O3-[[(2R,3S,4R,5R)-5-(4-aminopyrrolo[2,1-f][1,2,4]triazin-7-yl)-5-cyano-3,4-dihydroxy-tetrahydrofuran-2-yl]methyl]04-methyl (4R)-2-oxooxazolidine-3,4-dicarboxylate]	20100	20.4	> 50	83.4	256	77.22	0.04	0.08
CC(C)OC(=O)[C@@H](NC(=O)OC[C@H]1O[C@@](C#N)(c2ccc3c(N)ncnn23)[C@H](O)[C@@H]1O)C(C)C [Compound 7, isopropyl-((((2R,3S,4R,5R)-5-(4-aminopyrrolo[2,1-f][1,2,4]triazin-7-yl)-5-cyano-3,4-dihydroxytetrahydrofuran-2-yl)methoxy)carbonyl)-L-valinate]	> 50000	> 50	> 50	≥ 792	≥ 592	1303.4	0.115	6.245
N#C[C@@]1(c2ccc3c(N)ncnn23)O[C@H](COC(=O)N2CCCCCCC2)[C@@H](O)[C@H]1O [Compound 9, [(2R,3S,4R,5R)-5-(4-aminopyrrolo[2,1-f][1,2,4]triazin-7-yl)-5-cyano-3,4-dihydroxy-tetrahydrofuran-2-yl]methyl azocane-1-carboxylate]	10300	> 50	> 50	400	526	1584	0.47	6.67
CCOC(=O)c1cccn1C(=O)OC[C@H]1O[C@@](C#N)(c2ccc3c(N)ncnn23)[C@H](O)[C@@H]1O [Compound 10, O1-[[(2R,3S,4R,5R)-5-(4-aminopyrrolo[2,1-f][1,2,4]triazin-7-yl)-5-cyano-3,4-dihydroxy-tetrahydrofuran-2-yl]methyl]O2-ethyl pyrrole-1,2-dicarboxylate]	1520	5.16	> 50	1.71	4.6	68.966	0.22	5.54
CCCSC(=O)OC[C@H]1O[C@@](C#N)(c2ccc3c(N)ncnn23)[C@H](OC(C)=O)[C@@H]1OC(C)=O [Compound 22, [(2R,3R,4R,5R)-4-acetoxy-5-(4-aminopyrrolo[2,1-f][1,2,4]triazin-7-yl)-5-cyano-2-(propylsulfanylcarbonyloxymethyl)tetrahydrofuran-3-yl]acetate]	3320	9.83	> 50	1.59	≤ 2			
CCSC(=O)OC[C@H]1O[C@@](C#N)(c2ccc3c(N)ncnn23)[C@H](OC(C)=O)[C@@H]1OC(C)=O [Compound 23, [(2R,3R,4R,5R)-4-acetoxy-5-(4-aminopyrrolo[2,1-f][1,2,4]triazin-7-yl)-5-cyano-2-(ethylsulfanylcarbonyloxymethyl)tetrahydrofuran-3-yl]acetate]	3810	12.4	> 50	0.885	≤ 2			
CC(=O)O[C@H]1[C@@H](OC(C)=O)[C@](C#N)(c2ccc3c(N)ncnn23)O[C@@H]1COC(=O)SC(C)(C)C [Compound 24, [(2R,3R,4R,5R)-4-acetoxy-5-(4-aminopyrrolo[2,1-f][1,2,4]triazin-7-yl)-2-(tert-butylsulfanylcarbonyloxymethyl)-5-cyano-tetrahydrofuran-3-yl]acetate]	19400	> 50	> 50	0.921	≤ 2			
CC(=O)O[C@H]1[C@@H](OC(C)=O)[C@](C#N)(c2ccc3c(N)ncnn23)O[C@@H]1COC(=O)SC1CCCC1 [Compound 25, [(2R,3R,4R,5R)-4-acetoxy-5-(4-aminopyrrolo[2,1-f][1,2,4]triazin-7-yl)-5-cyano-2-(cyclopentylsulfanylcarbonyloxymethyl)tetrahydrofuran-3-yl]acetate]	1250	4.02	32.5	1.14	≤ 2	72.169		
